Source: patent publication US6025142A, “Hydrophobic u-PAR binding site” (Boehringer Mannheim GmbH, priority 1994, dated 2000)

Assays:
u-PAR [1] = biological target: T1, u-PAR (Homo sapiens, UniProt Q03405); test: fluorescence titration of u-PAR with ANS (Scatchard); assay type: binding; details: intact u-PAR
T1 construct: made in house; host or cells: Chinese hamster ovary (CHO) cells, conditioned media
Protocol: ANS titration. The stoichiometry and affinity of ANS binding to u-PAR was determined by titrating fixed concentrations of u-PAR with ANS up to a concentration of 100 μM. The observed fluorescence intensities were corrected for the dilution effect of the added ANS, the low background fluorescence of ANS in buffer and for the inner filter effect of the varying concentration of ANS. The latter was performed using the relationship
where ε386 is the molar extinction coefficient of ANS at half the path length of the fluorescence cuvette, ANSo is the total ANS concentration, and Fobs and Fcorr are the observed and corrected fluorescence intensities. The concentration of bound ANS was determined from the relationship
where Fmax is the theoretical fluorescence of a molar solution if all were bound to u-PAR. This parameter was calculated by titration of a protein concentration sufficiently high to ensure that essentially all added ANS is bound in the initial linear part of the binding curve. The data generated in this way were analyzed by the method of Scatchard.

complement component C3b = details: Isenman, 1983; read-out: Kd of ANS binding to complement component C3b; cited from earlier work
apohemoglobin = details: Stryer, 1965; read-out: Kd of ANS binding to apohemoglobin; cited from earlier work
u-PAR [2] = biological target: T1, u-PAR; test: protease cleavage of u-PAR monitored by ANS fluorescence; assay type: biochemical
Protocol: Fluorescence measurements. […] All fluorescence measurements were made using 2 μM u-PAR and 10 μM ANS in PBS at 25° C. unless otherwise stated.

T1 sequence (Q03405 23-299): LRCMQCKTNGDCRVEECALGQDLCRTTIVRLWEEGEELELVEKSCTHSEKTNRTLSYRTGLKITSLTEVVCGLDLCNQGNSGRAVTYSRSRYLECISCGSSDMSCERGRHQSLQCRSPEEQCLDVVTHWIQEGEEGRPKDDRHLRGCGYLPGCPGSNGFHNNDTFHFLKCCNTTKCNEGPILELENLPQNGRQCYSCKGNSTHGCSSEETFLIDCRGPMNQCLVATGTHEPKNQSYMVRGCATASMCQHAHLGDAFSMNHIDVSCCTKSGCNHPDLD

reduction in the ANS fluorescence after cleavage of intact u-PAR (u-PAR [2]) | Compound | enhancement of ANS fluorescence intensity on binding to u-PAR (u-PAR [1]) | stoichiometry of ANS binding (u-PAR [1]) | Kd (u-PAR [1]; PBS, 25° C., read-out: dissociation constant of ANS binding to u-PAR) | Kd (complement component C3b) | Kd (apohemoglobin)
 | O=S(=O)(O)c1cccc2cccc(Nc3ccccc3)c12 [ANS, 8-anilino-1-naphthalene sulfonic acid] | > 10 fold | 1.09±0.17 moles/mole u-PAR | 33.8 ± 3.2 µM | 40 µM | 55 µM
75% | chymotrypsin |  |  |  |  | 
